Experimental data published in patent EP1561465A2, “Methods of use of fluoroquinolone compounds against bacteria” (LG Life Sciences, Ltd., priority 1999, dated 2001).
Values after ≈ are worked out from the molar mass of the structure shown. Read-outs that look alike come from different tables or passages of the source.

Tests used:
[1] = test system: Streptococcus pneumoniae; test: MIC by NCCLS reference broth microdilution, 450 respiratory tract pathogens; assay type: cell-based; conditions: Streptococcus pneumoniae
[2] = test system: Staphylococcus aureus; test: MIC by NCCLS broth microdilution, 1100 Japanese clinical isolates 1997-1998; assay type: cell-based; conditions: for MIC50 / MIC90 / MIC: Staphylococcus aureus; for MIC: Staphylococcus aureus quinolone resistant
[3] = test system: Campylobacter jejuni; test: MIC by agar dilution (NCCLS M7-A4), 288 enteropathogenic isolates, gemifloxacin and 15 other antimicrobials; conditions: for MIC: Campylobacter jejuni
[4] = test system: Yersinia enterocolitica; test: MIC by agar dilution (NCCLS M7-A4), 288 enteropathogenic isolates, eight quinolones; assay type: cell-based; conditions: Yersinia enterocolitica (n = 22)
[5] = test system: Campylobacter jejuni; test: MIC by agar dilution (NCCLS M7-A4), 5% sheep blood, microaerophilic 48 h; assay type: cell-based; conditions: Campylobacter jejuni (n=91)
[6] = test system: Hafnia alvei; test: MIC by agar dilution (NCCLS M7-A4), 288 enteropathogenic isolates, eight quinolones; assay type: cell-based; conditions: Hafnia alvei (n = 32)
[7] = test system: Proteus mirabilis; test: MIC by NCCLS broth microdilution, 1100 Japanese clinical isolates 1997-1998; assay type: cell-based; conditions: Proteus mirabilis (n=30)
[8] = test system: Serratia marcescens; test: as above; assay type: cell-based; conditions: Serratia marcescens (n=30)
[9] = test system: Streptococcus pneumoniae; test: MIC by broth microdilution (NCCLS), dried MicroScan panels, clinical isolates 1998-1999; assay type: cell-based; conditions: for MIC90: Streptococcus pneumoniae
[10] = Streptococcus pneumoniae (n = 100)
[11] = erythromycin resistant M phenotype (n = 16)
[12] = erythromycin resistant MLSB phenotype (n = 16)
[13] = penicillin intermediate (n = 16)
[14] = penicillin susceptible (n = 20)
[15] = Staphylococcus aureus oxacillin resistant (n=57)
[16] = Staphylococcus aureus oxacillin susceptible (n=41)
[17] = Streptococcus pneumoniae (302 isolates)

N[C@@H]1[C@H]2CN(c3nc4c(cc3F)c(=O)c(C(=O)O)cn4-c3ccc(F)cc3F)C[C@@H]12 [Trovafloxacin, trovafloxacin] was tested, and the MIC [1, 10] was 0.03 to 0.25 µg/mL (≈ 0.0721 to 0.6 µM), the MIC50 [1, 10] was 0.12 µg/mL (≈ 0.288 µM) and the MIC90 [1, 10] was 0.12 µg/mL (≈ 0.288 µM). It also gave an MIC [1, 11] of 0.06 to 0.12 µg/mL (≈ 0.144 to 0.288 µM), an MIC50 [1, 11] of 0.06 µg/mL (≈ 0.144 µM) and an MIC90 [1, 11] of 0.12 µg/mL (≈ 0.288 µM). For the same molecule, the MIC [1, 12] was 0.06 to 0.12 µg/mL (≈ 0.144 to 0.288 µM), the MIC50 [1, 12] was 0.06 µg/mL (≈ 0.144 µM) and the MIC90 [1, 12] was 0.12 µg/mL (≈ 0.288 µM). For the same molecule, the MIC ([1]; multi-drug resistant (n = 16)) was 0.06 to 0.12 µg/mL (≈ 0.144 to 0.288 µM), the MIC50 ([1]; multi-drug resistant (n = 16)) was 0.06 µg/mL (≈ 0.144 µM) and the MIC90 ([1]; multi-drug resistant (n = 16)) was 0.12 µg/mL (≈ 0.288 µM). For the same molecule, the MIC [1, 13] was 0.06 to 0.12 µg/mL (≈ 0.144 to 0.288 µM), the MIC50 [1, 13] was 0.12 µg/mL (≈ 0.288 µM) and the MIC90 [1, 13] was 0.12 µg/mL (≈ 0.288 µM). For the same molecule, the MIC ([1]; penicillin resistant (n = 18)) was 0.06 to 0.25 µg/mL (≈ 0.144 to 0.6 µM), the MIC50 ([1]; penicillin resistant (n = 18)) was 0.12 µg/mL (≈ 0.288 µM) and the MIC90 ([1]; penicillin resistant (n = 18)) was 0.12 µg/mL (≈ 0.288 µM). The MIC [1, 14] was 0.06 to 0.12 µg/mL (≈ 0.144 to 0.288 µM), the MIC50 [1, 14] was 0.12 µg/mL (≈ 0.288 µM) and the MIC90 [1, 14] was 0.12 µg/mL (≈ 0.288 µM). For the same molecule, the “MIC Range” value [2, 15] was 0.016 to 32 µg/mL, the “MIC Range” value [2, 16] was no more than 0.008 to 0.5 µg/mL and the MIC50 [2, 15] was 1 µg/mL (≈ 2.4 µM). The MIC90 [2, 15] was 8 µg/mL (≈ 19.2 µM), the MIC50 [2, 16] was 0.032 µg/mL (≈ 0.0769 µM) and the MIC90 [2, 16] was 0.063 µg/mL (≈ 0.151 µM). The MIC ([2]; strain TMS1* (spontaneous mutant resistant to ciprofloxacin)) was 0.125 µg/mL (≈ 0.3 µM), the MIC ([2]; strain TMS3, read-out: MIC) was 128 µg/mL (≈ 307 µM) and the MIC ([2]; strain TMS4, read-out: MIC) was 0.5 µg/mL (≈ 1.2 µM). For the same molecule, the MIC ([2]; strain TMS5, read-out: MIC) was 1 µg/mL (≈ 2.4 µM), the MIC ([2]; strain TMS6, read-out: MIC) was 0.5 µg/mL (≈ 1.2 µM) and the “MIC (mg/L) Range” value ([3]; Campylobacter jejuni N= 91) was no more than 0.015 to 32 mg/L. For the same molecule, the MIC ([3]; read-out: MIC (mg/L) 50%) was 8 mg/L (≈ 19.2 µM), the MIC ([3]; read-out: MIC (mg/L) 90%) was 8 mg/L (≈ 19.2 µM) and the “% Susceptible” value [4] was 100%. For the same molecule, the MIC50 [4] was 0.06 µg/mL (≈ 0.144 µM), the MIC90 [4] was 0.06 µg/mL (≈ 0.144 µM) and the “MIC Range” value [4] was no more than 0.015 to 0.25 µg/mL. For the same molecule, the “% Susceptible” value [5] was 31.86%, the MIC50 [5] was 8 µg/mL (≈ 19.2 µM) and the MIC90 [5] was 8 µg/mL (≈ 19.2 µM). The “MIC Range” value [5] was no more than 0.015 to 32 µg/mL, the “% Susceptible” value [6] was 100% and the MIC50 [6] was 0.06 µg/mL (≈ 0.144 µM). The MIC90 [6] was 0.06 µg/mL (≈ 0.144 µM), the “MIC Range” value [6] was 0.03 to 0.12 µg/mL and the “MIC Range” value [7] was 0.063 to 16 µg/mL. The MIC50 ([7]; read-out: MIC50) was 0.25 µg/mL (≈ 0.6 µM), the MIC90 ([7]; read-out: MIC90) was 0.5 µg/mL (≈ 1.2 µM) and the MIC90 [8] was 2 µg/mL (≈ 4.8 µM). The MIC50 ([8]; read-out: MIC50) was 0.25 µg/mL (≈ 0.6 µM), the MIC50 [9, 17] was 0.12 µg/mL (≈ 0.288 µM) and the “MIC Range” value [9, 17] was no more than 0.015 to 1 µg/mL. It also gave an MIC90 ([9]; Erythromycin-resistant (86)) of 0.25 µg/mL (≈ 0.6 µM), an MIC90 ([9]; Erythromycin-sensitive (216)) of 0.25 µg/mL (≈ 0.6 µM) and an MIC90 ([9]; Penicillin-intermediate (124)) of 0.25 µg/mL (≈ 0.6 µM). The MIC90 ([9]; Penicillin-resistant (80)) was 0.25 µg/mL (≈ 0.6 µM), the MIC90 ([9]; Penicillin-sensitive (98)) was 0.25 µg/mL (≈ 0.6 µM) and the MIC90 [9, 17] was 0.25 µg/mL (≈ 0.6 µM).
